How the values were obtained:
[1] = system: Tyrosine-protein kinase ABL1 (Homo sapiens), P00519 [T315I]; conditions: Compound concentration 1000.0 nM
[2] = system: ALK tyrosine kinase receptor (Homo sapiens), Q9UM73 [C1156Y]; conditions: Compound concentration 1000.0 nM
[3] = biological target: Ankyrin repeat and protein kinase domain-containing protein 1 (Homo sapiens) (UniProt Q8NFD2); conditions: Compound concentration 1000.0 nM
[4] = biological target: Calcium/calmodulin-dependent protein kinase type II subunit gamma (Homo sapiens) (UniProt Q13555); conditions: Compound concentration 1000.0 nM
[5] = biological target: Cyclin-dependent kinase 9 (Homo sapiens) (UniProt P50750); conditions: Compound concentration 1000.0 nM
[6] = biological target: Cyclin-dependent kinase-like 5 (Homo sapiens) (UniProt O76039); conditions: Compound concentration 1000.0 nM
[7] = biological target: Macrophage colony-stimulating factor 1 receptor (Homo sapiens) (UniProt P07333); conditions: Compound concentration 1000.0 nM
[8] = biological target: Casein kinase I isoform alpha (Homo sapiens) (UniProt P48729); conditions: Compound concentration 1000.0 nM
[9] = biological target: Casein kinase II subunit alpha (Homo sapiens) (UniProt P68400); conditions: Compound concentration 1000.0 nM
[10] = biological target: Ephrin type-A receptor 2 (Homo sapiens) (UniProt P29317); conditions: Compound concentration 1000.0 nM
[11] = biological target: Ephrin type-A receptor 6 (Homo sapiens) (UniProt Q9UF33); conditions: Compound concentration 1000.0 nM
[12] = biological target: Receptor tyrosine-protein kinase erbB-4 (Homo sapiens) (UniProt Q15303); conditions: Compound concentration 1000.0 nM
[13] = biological target: Mitogen-activated protein kinase 3 (Homo sapiens) (UniProt P27361); conditions: Compound concentration 1000.0 nM
[14] = biological target: Mitogen-activated protein kinase 1 (Homo sapiens) (UniProt P28482); conditions: Compound concentration 1000.0 nM
[15] = biological target: Mitogen-activated protein kinase 15 (Homo sapiens) (UniProt Q8TD08); conditions: Compound concentration 1000.0 nM
[16] = biological target: Serine/threonine-protein kinase/endoribonuclease IRE1 (Homo sapiens) (UniProt O75460); conditions: Compound concentration 1000.0 nM
Chain of Serine/threonine-protein kinase/endoribonuclease IRE1 (Homo sapiens) (O75460 19-977 limits assumed): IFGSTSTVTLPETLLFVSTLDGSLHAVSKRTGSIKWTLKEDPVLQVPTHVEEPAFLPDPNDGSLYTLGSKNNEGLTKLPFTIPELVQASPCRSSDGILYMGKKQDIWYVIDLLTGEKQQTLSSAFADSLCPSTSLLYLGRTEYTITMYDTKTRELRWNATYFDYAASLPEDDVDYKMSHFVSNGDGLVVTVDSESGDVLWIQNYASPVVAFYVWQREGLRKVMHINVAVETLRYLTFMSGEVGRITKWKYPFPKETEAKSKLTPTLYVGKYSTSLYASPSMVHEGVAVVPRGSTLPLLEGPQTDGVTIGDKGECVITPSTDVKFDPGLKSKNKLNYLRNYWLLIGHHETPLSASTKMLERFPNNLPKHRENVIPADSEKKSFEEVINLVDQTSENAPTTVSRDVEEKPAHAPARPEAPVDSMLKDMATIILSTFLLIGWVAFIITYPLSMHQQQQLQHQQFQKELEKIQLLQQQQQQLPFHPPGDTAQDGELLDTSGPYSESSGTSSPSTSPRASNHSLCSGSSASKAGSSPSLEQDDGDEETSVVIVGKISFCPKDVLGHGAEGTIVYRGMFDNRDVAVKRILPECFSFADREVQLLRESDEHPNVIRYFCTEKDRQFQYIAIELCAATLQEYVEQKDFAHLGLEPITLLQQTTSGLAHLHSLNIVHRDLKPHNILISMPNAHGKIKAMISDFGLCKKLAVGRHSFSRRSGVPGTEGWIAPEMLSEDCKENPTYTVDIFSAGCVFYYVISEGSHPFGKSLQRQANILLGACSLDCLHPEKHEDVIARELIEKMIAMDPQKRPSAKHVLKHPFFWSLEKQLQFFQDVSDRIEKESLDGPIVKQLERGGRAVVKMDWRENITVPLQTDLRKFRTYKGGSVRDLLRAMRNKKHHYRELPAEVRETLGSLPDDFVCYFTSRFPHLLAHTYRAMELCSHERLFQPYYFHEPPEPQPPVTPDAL

[17] = biological target: Focal adhesion kinase 1 (Homo sapiens) (UniProt Q05397); conditions: Compound concentration 1000.0 nM
[18] = biological target: Fibroblast growth factor receptor 2 (Homo sapiens) (UniProt P21802); conditions: Compound concentration 1000.0 nM
[19] = system: Receptor-type tyrosine-protein kinase FLT3 (Homo sapiens), P36888 [D835Y]; conditions: Compound concentration 1000.0 nM
[20] = biological target: Interleukin-1 receptor-associated kinase 4 (Homo sapiens) (UniProt Q9NWZ3); conditions: Compound concentration 1000.0 nM
[21] = biological target: Tyrosine-protein kinase JAK1 (Homo sapiens) (UniProt P23458); conditions: Compound concentration 1000.0 nM
[22] = biological target: Tyrosine-protein kinase JAK3 (Homo sapiens) (UniProt P52333); conditions: Compound concentration 1000.0 nM
[23] = biological target: Serine/threonine-protein kinase STK11 (Homo sapiens) (UniProt Q15831); conditions: Compound concentration 1000.0 nM
Chain of Serine/threonine-protein kinase STK11 (Homo sapiens) (Q15831 whole entry): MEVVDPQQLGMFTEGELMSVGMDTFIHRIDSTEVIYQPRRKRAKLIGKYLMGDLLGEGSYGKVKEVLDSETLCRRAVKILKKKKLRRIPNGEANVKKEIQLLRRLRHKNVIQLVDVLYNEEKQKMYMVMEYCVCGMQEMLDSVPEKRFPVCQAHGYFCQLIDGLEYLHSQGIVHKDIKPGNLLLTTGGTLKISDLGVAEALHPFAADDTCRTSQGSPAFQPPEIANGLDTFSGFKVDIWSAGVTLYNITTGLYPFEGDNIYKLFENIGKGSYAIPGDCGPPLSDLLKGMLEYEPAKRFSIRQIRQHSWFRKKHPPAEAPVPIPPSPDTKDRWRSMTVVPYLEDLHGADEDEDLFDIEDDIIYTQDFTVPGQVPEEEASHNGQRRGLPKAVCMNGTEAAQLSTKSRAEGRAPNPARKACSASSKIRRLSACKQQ

[24] = biological target: Microtubule-associated serine/threonine-protein kinase 1 (Homo sapiens) (UniProt Q9Y2H9); conditions: Compound concentration 1000.0 nM
[25] = biological target: Dual specificity mitogen-activated protein kinase kinase 2 (Homo sapiens) (UniProt P36507); conditions: Compound concentration 1000.0 nM
Chain of Dual specificity mitogen-activated protein kinase kinase 2 (Homo sapiens) (P36507 whole entry): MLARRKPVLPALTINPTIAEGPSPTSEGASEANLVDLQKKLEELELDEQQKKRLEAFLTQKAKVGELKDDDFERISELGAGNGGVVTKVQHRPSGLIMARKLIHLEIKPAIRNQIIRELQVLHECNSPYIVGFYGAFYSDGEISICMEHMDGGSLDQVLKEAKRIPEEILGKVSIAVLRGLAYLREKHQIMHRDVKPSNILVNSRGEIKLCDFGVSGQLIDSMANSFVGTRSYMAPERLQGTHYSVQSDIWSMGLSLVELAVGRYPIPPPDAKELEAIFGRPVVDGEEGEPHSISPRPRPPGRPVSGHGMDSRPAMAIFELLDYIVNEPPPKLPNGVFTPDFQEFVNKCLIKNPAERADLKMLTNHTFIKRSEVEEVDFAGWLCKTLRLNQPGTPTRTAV

[26] = biological target: Mitogen-activated protein kinase kinase kinase 9 (Homo sapiens) (UniProt P80192); conditions: Compound concentration 1000.0 nM
[27] = biological target: Myosin light chain kinase family member 4 (Homo sapiens) (UniProt Q86YV6); conditions: Compound concentration 1000.0 nM
[28] = biological target: Serine/threonine-protein kinase Nek1 (Homo sapiens) (UniProt Q96PY6); conditions: Compound concentration 1000.0 nM
[29] = biological target: Serine/threonine-protein kinase Nek10 (Homo sapiens) (UniProt Q6ZWH5); conditions: Compound concentration 1000.0 nM
Chain of Serine/threonine-protein kinase Nek10 (Homo sapiens) (Q6ZWH5 whole entry): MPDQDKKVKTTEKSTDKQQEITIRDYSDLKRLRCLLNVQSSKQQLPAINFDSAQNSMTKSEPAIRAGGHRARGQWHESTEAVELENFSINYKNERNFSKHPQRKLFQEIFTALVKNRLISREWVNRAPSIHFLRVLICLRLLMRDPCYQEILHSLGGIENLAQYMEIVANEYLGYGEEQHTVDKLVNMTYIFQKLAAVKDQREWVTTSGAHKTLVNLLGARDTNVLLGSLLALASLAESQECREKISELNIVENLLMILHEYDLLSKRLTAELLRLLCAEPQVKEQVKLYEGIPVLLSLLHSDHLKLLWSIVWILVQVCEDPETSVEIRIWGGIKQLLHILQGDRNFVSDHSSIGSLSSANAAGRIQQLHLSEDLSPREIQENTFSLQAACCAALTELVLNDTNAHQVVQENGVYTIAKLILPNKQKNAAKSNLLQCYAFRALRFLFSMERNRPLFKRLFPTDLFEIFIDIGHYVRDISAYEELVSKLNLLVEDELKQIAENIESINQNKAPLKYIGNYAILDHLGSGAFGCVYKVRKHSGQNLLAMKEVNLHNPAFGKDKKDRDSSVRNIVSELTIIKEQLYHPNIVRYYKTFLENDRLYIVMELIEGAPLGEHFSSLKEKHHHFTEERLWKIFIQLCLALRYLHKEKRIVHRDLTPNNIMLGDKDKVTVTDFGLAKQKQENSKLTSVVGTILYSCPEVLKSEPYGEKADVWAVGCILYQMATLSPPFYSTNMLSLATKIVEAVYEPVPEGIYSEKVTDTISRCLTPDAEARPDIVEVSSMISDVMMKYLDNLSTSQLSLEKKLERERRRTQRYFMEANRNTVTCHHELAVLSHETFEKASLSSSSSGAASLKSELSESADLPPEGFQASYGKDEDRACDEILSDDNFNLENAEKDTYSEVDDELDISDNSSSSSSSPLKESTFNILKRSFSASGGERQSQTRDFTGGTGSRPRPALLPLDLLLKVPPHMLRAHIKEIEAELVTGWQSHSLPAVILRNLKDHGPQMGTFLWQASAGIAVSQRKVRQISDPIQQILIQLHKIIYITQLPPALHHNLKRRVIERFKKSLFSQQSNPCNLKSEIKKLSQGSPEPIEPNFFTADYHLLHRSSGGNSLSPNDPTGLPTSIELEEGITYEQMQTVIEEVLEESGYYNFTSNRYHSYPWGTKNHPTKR

[30] = biological target: Cyclin-dependent kinase 16 (Homo sapiens) (UniProt Q00536); conditions: Compound concentration 1000.0 nM
[31] = biological target: cAMP-dependent protein kinase catalytic subunit alpha (Homo sapiens) (UniProt P17612); conditions: Compound concentration 1000.0 nM
[32] = biological target: cGMP-dependent protein kinase 1 (Homo sapiens) (UniProt Q13976); conditions: Compound concentration 1000.0 nM
[33] = system: Proto-oncogene tyrosine-protein kinase receptor Ret (Homo sapiens), P07949 [M918T]; conditions: Compound concentration 1000.0 nM
Chain of Proto-oncogene tyrosine-protein kinase receptor Ret (Homo sapiens), P07949 [M918T] (P07949 whole entry M918T): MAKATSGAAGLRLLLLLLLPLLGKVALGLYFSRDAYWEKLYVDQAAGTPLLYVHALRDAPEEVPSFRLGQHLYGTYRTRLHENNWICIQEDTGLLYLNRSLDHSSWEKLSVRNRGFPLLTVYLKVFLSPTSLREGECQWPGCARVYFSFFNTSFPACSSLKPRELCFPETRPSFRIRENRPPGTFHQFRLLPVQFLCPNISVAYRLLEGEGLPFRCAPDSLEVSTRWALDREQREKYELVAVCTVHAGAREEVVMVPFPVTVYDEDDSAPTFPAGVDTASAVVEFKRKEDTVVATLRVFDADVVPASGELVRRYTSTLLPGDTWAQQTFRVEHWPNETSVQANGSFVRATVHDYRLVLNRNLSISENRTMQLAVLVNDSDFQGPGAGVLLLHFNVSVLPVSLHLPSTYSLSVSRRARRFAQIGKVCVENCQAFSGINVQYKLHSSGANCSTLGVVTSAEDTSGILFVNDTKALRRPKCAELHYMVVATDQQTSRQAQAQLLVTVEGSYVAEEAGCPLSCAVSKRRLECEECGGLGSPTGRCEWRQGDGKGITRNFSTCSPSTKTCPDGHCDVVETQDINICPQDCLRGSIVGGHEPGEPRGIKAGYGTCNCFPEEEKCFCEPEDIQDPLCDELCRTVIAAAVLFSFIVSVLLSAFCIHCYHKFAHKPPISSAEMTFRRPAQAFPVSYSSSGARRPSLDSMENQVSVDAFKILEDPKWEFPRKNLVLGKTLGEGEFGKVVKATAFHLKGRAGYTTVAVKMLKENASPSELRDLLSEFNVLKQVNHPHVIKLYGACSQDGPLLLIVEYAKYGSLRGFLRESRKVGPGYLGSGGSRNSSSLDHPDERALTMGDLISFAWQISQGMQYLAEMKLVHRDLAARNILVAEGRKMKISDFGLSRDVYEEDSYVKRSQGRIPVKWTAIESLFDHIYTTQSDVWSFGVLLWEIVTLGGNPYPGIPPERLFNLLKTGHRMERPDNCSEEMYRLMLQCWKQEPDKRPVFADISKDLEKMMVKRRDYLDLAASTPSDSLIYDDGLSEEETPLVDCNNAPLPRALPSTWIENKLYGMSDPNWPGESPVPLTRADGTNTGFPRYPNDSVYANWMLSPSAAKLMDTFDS

[34] = system: Proto-oncogene tyrosine-protein kinase receptor Ret (Homo sapiens), P07949 [V804L]; conditions: Compound concentration 1000.0 nM
Chain of Proto-oncogene tyrosine-protein kinase receptor Ret (Homo sapiens), P07949 [V804L] (P07949 whole entry V804L): as the sequence (P07949 whole entry M918T) above, with V804L, T918M counted along it

[35] = biological target: Receptor-interacting serine/threonine-protein kinase 4 (Homo sapiens) (UniProt P57078); conditions: Compound concentration 1000.0 nM
[36] = biological target: Ribosomal protein S6 kinase alpha-3 (Homo sapiens) (UniProt P51812); conditions: Compound concentration 1000.0 nM
[37] = biological target: Tyrosine-protein kinase SYK (Homo sapiens) (UniProt P43405); conditions: Compound concentration 1000.0 nM
[38] = biological target: Serine/threonine-protein kinase TAO3 (Homo sapiens) (UniProt Q9H2K8); conditions: Compound concentration 1000.0 nM
[39] = biological target: Testis-specific serine/threonine-protein kinase 3 (Homo sapiens) (UniProt Q96PN8); conditions: Compound concentration 1000.0 nM
[40] = biological target: Serine/threonine-protein kinase ULK3 (Homo sapiens) (UniProt Q6PHR2); conditions: Compound concentration 1000.0 nM
[41] = biological target: Serine/threonine-protein kinase 32A (Homo sapiens) (UniProt Q8WU08); conditions: Compound concentration 1000.0 nM
[42] = biological target: Sodium-dependent serotonin transporter (Homo sapiens) (UniProt P31645); conditions: Compound concentration 10.0 uM
[43] = biological target: Alpha-2B adrenergic receptor (Homo sapiens) (UniProt P18089); conditions: Compound concentration 10.0 uM
[44] = biological target: Beta-1 adrenergic receptor (Homo sapiens, UniProt P08588); conditions: Compound concentration 10.0 uM
[45] = biological target: Beta-3 adrenergic receptor (Homo sapiens) (UniProt P13945); conditions: Compound concentration 10.0 uM
Rattus norvegicus = organism: Rattus norvegicus; conditions: Compound concentration 10.0 uM

Chain of Ankyrin repeat and protein kinase domain-containing protein 1 (Homo sapiens) (Q8NFD2 whole entry, the tested form may be a part): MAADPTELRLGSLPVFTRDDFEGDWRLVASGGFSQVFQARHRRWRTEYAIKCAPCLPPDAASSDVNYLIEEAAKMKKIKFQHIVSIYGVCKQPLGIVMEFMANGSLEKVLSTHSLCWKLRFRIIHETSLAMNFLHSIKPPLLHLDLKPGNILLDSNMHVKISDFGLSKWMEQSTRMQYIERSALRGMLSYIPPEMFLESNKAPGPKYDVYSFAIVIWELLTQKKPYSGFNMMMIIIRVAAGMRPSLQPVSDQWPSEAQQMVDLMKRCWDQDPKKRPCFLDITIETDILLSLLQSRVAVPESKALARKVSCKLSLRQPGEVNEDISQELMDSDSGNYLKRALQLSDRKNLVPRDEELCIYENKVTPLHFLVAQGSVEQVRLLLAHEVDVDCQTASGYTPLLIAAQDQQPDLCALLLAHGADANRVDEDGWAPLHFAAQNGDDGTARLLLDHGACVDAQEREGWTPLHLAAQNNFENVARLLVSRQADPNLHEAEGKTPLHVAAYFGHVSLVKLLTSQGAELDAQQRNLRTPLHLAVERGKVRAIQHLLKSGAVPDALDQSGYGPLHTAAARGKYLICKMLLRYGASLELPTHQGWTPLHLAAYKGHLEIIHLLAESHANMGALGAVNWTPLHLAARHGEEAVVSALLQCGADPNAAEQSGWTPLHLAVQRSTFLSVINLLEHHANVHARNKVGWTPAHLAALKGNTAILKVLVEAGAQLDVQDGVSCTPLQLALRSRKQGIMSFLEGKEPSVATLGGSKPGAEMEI

CC(=O)C1=C(C)N(c2cccc(C(F)(F)F)c2)C(=O)N[C@@H]1c1ccc(C#N)nc1 [BAY-678] was tested, and the residual activity [1] was 96.9%, the residual activity [2] was 100% and the residual activity [3] was 100%. The residual activity [4] was 100%, the residual activity [5] was 100% and the residual activity [6] was 100%. It also gave a residual activity [7] of 99.4%, a residual activity [8] of 91.5% and a residual activity [9] of 94.8%. The residual activity [10] was 100%, the residual activity [11] was 94.5% and the residual activity [12] was 90.8%. It also gave a residual activity [13] of 97.1%, a residual activity [14] of 98.9% and a residual activity [15] of 100%. It also gave a residual activity [16] of 100%, a residual activity [17] of 100% and a residual activity [18] of 100%. For the same compound, the residual activity [19] was 93.9%, the residual activity [20] was 100% and the residual activity [21] was 100%. For the same compound, the residual activity [22] was 70.5%, the residual activity [23] was 72.8% and the residual activity [24] was 96.9%. The residual activity [25] was 84.2%, the residual activity [26] was 94% and the residual activity [27] was 100%. For the same compound, the residual activity [28] was 100%, the residual activity [29] was 96.4% and the residual activity [30] was 100%. The residual activity [31] was 92.3%, the residual activity [32] was 45.5% and the residual activity [33] was 100%. The residual activity [34] was 97.4%, the residual activity [35] was 100% and the residual activity [36] was 99.2%. For the same compound, the residual activity [37] was 100%, the residual activity [38] was 73% and the residual activity [39] was 96.2%. For the same compound, the residual activity [40] was 100%, the residual activity [41] was 100% and the inhibition [42] was -2.61%. The inhibition [43] was -1.73%, the inhibition [44] was 60% and the inhibition [45] was -0.551%. The inhibition (Rattus norvegicus) was 20%.

— ChEMBL document CHEMBL4507272 (2021)
